The text below walks through data of the NIST ThermoML archive (doi:10.1016/j.jct.2004.07.012).

± gives the expanded uncertainty stated by the source.

The conditions of the data set: 298.15 K; 101.33 kPa; Liquid.
Regarding `ClCCBr` [1-bromo-2-chloroethane], the mass density was 1727.01 ± 2.2 kg/m3.

`ClCCCl` [1,2-dichloroethane]: the mass density is given as 1246.34 ± 0.6 kg/m3.

For the molecule `BrCBr` [dibromomethane], the mass density is reported as 2478.36 ± 3.1 kg/m3.

In the case of `ClCBr` [bromochloromethane], the mass density is 1924.55 ± 1.9 kg/m3.

Consider `CCCO` [propan-1-ol], for which the mass density was found to be 799.74 ± 0.49 kg/m3.
